Test results taken from the NIST ThermoML archive (doi:10.1021/je049701s).

Conditions: Liquid; for mass density: 293.1 K, 101.33 kPa; for vapor or sublimation pressure: Ebulliometric method (Recirculating still)

Cc1ccc(C)cc1 [1,4-dimethylbenzene]
Conditions	mass density [kg/m3]	vapor or sublimation pressure [kPa]
–	861.2	–
389.8 K	–	53.26
390.85 K	–	55
393.61 K	–	60
398.72 K	–	70
401.06 K	–	75
403.29 K	–	80
405.37 K	–	84.84
409.38 K	–	95
420.93 K	–	129.7

CCc1ccccc1 [ethylbenzene]
Conditions	mass density [kg/m3]	vapor or sublimation pressure [kPa]
–	867.1	–
385.7 K	–	50
387.75 K	–	53.37
391.51 K	–	60
394.15 K	–	65
397.49 K	–	71.87
398.93 K	–	75
401.16 K	–	80
403.27 K	–	85
405.26 K	–	90
407.14 K	–	95
412.49 K	–	110.02
417 K	–	124.3

Cc1ccccc1C [1,2-dimethylbenzene]
Conditions	Normal boiling temperature [°C]	mass density [kg/m3]	vapor or sublimation pressure [kPa]
396.73 K	–	–	55
399.52 K	–	–	60
400.66 K	–	–	62.13
404.71 K	–	–	70
407.05 K	–	–	75
409.44 K	–	–	80.33
411.44 K	–	–	85
413.5 K	–	–	90
415.44 K	–	–	95
418.23 K	–	–	102.5
427 K	–	–	129.3
Vibrating tube method	–	879.8	–
ebulliometry	144.40	–	–

Cc1cccc(C)c1 [1,3-dimethylbenzene]
Conditions	mass density [kg/m3]	vapor or sublimation pressure [kPa]
–	864.2	–
362.45 K	–	21.82
366.31 K	–	25
371.49 K	–	29.94
376.31 K	–	35
380.81 K	–	40.36
384.3 K	–	45
387.84 K	–	50
389.84 K	–	53.54
393.34 K	–	60
397.71 K	–	67.97
400.96 K	–	75
403.25 K	–	80
406.5 K	–	87.74
407.5 K	–	90
409.4 K	–	95
415.54 K	–	111.8
423.34 K	–	137.3
